# According to patent US20190216767A1, “TOPICAL THERAPY FOR THE TREATMENT OF SKIN KERATOSES USING NANOPARTICLES OF TAXANES” (DFB SORIA, LLC, priority 2017, published 2019):
# Where two headings read alike, the source gives them in different places.
# Experiments:
# [1] = methanol/water 15/85 (v/v), 37° C., pH 7, 75 rpm, cited from earlier work
# [2] = Particle size of paclitaxel nanoparticles lots (ACCUSIZER 780); format: physicochemical; conditions: nanoparticle API lot
# Experimental: Max. Concentration: 9000 particles/mL, No. containers: 1, Sensor Range: Summation, Lower Detection Limit: 0.5 μm, Flow Rate: 30 mL/min, No. Analysis pulls: 4, Time between pulls: 1 sec, Pull volume: 10 mL, Tare Volume: 1 mL, Prime volume: 1 mL, Include First Pull: Not Selected.
# Vortexed for 5-10 minutes and sonicated in a water batch for 1 minute.
# Filled a plastic bottle with filtered (0.22 μm) 0.1% w/w SDS solution and analyzed the Background.
# [3] = Specific surface area (SSA) by BET isotherm; format: physicochemical; conditions: BET isotherm method, nanoparticle API lot
# Source text: (§1) Taxane nanoparticles produced by various supercritical carbon dioxide particle size reduction methods can have unique physical characteristics as compared to taxane nanoparticles produced by conventional particle size reduction methods using physical impacting or grinding, e.g., wet or dry milling, micronizing, disintegrating, comminuting, microfluidizing, or pulverizing. […] This bulk density range is generally lower than the bulk density of taxane particles produced by conventional means, and the SSA is generally higher than the SSA of taxane particles produced by conventional means. […] As used herein, the “specific surface area (SSA)” is the total surface area of the taxane nanoparticle per unit of taxane mass as measured by the Brunauer-Emmett-Teller (“BET”) isotherm by the following method: a known mass between 200 and 300 mg of the analyte is added to a 30 mL sample tube. […] The automated test is then carried out using the BETWIN® software package and the surface area of each sample is subsequently calculated. The bulk density measurement can be conducted by pouring the taxane nanoparticles into a graduated cylinder without tapping at room temperature, measuring the mass and volume, and calculating the bulk density.
# [4] = Bulk density (not tapped); format: physicochemical; conditions: nanoparticle API lot
# Source text: as §1
# [5] = Observation of paclitaxel nanoparticle crystal growth by light microscopy; format: physicochemical
# Göttingen minipigs = experiment: Dermal toxicity study (GLP, topical daily for 28 days); format: in vivo; conditions: topical daily for 28 days, 0.3, 1.0 and 3%
# Experimental: The GLP-compliant study was conducted in Göttingen minipigs to characterize the toxicity of the formulations applied topically to 10% body surface area daily for 28 days. […] Reversibility of findings was also evaluated following a 2-week recovery period. Parameters evaluated included clinical observations, mortality and moribundity checks, dermal scoring, body weight, food consumption, eye examinations, test site photographs, electrocardiology, clinical pathology, bioanalysis and toxicokinetic evaluation, organ weights, macroscopic pathology and histopathology. There were no formulation-related effects on survival, clinical signs, dermal irritation, body weights, body weight gains, food consumption, ophthalmic findings, or cardiology parameters.
# [6] = Solubility of paclitaxel in various solvents (HPLC); format: physicochemical
# Experimental: Step “d” was continued for each vial for a total of 48 hours.
# [7] = listed as paclitaxel nanoparticles lot used in the formulas listed in Table 3
# [8] = listed as paclitaxel nanoparticles lot used in the formulas listed in Tables 16-19
# [9] = in Aluminum sulfate 0.1-0.2% in water, @ 7 days, RT
# [10] = in Ammonium lauryl sulfate 2% in water, @ 3 days, RT
# [11] = in Benzalkonium chloride (50%) 2% in water, @ 7 days & 21 days, RT
# [12] = in CARBOPOL ULTREZ 10 (with Ammonium hydroxide as neutralizer) 0.5% in water, @ 8 days & 21 days, RT
# [13] = in Castor Oil 100%, @ 24 hrs & 9 days, RT
# [14] = in Dimethicone, 1000 cSt 100%, @ 24 hrs & 6 days, RT
# [15] = in FOMBLIN HC04 100%, @ 4, 7 & 13 days, RT
# [16] = in Hydroxyethyl cellulose 1% in water, @ 7 days, RT
# [17] = in Hydroxypropyl methylcellulose 1% in water, @ 3 days, RT
# [18] = in Lecithin 1% in water, @ 24 hrs, RT
# [19] = in Light Mineral Oil NF 100%, @ 3 days, RT & 40 C.
# [20] = in Magnesium nitrate 5% in water, @ 3 days, RT
# [21] = in Mannitol 5% in water, @ 7 days, RT
# [22] = in Mineral Oil USP (heavy) 100%, @ 3 days, RT & 40 C.
# [23] = in PEG 400 10% in water, @ 22 days, RT & 60 C.
# [24] = in Poloxamer 188 2% in water, @ 7 days, RT
# [25] = in Poloxamer 407 2% in water, @ 5 & 7 days, RT
# [26] = in Polyoxyl 40 Hydrogenated Castor Oil (KOLLIPHOR RH40) 1% in water, @ 6 days, RT
# [27] = in Polysorbate 80 0.5% in Saline, @ 7 days, RT & 60 C.
# [28] = in Polysorbate 80 0.5% in water, @ 22 days, RT & 60 C.
# [29] = in Povidone 1% in water, @ 7 days & 21 days, RT
# [30] = in Proline 3% in water, @ 7 days, RT
# [31] = in Purified Water 100%, @ 5 days, RT & 60 C.
# [32] = in ST-Cyclomethicone 5 NF 100%, @ 24 hrs & 13 days, RT
# [33] = in Saline 0.9% NaCl in water, @ 7 days, RT & 60 C.
# [34] = in Sodium lauryl sulfate 2% in water, @ 7 days, RT
# [35] = in Sodium phosphate monobasic 0.75% in water, @ 7 days, RT
# [36] = in Sorbitol 5% in water, @ 7 days, RT
# [37] = in Vitamin E TPGS 0.5% in water, @ 6 days, RT
# [38] = in Zinc acetate […] in water, @ 7 days, RT
smiles,measurement,setting,value
"CC(=O)O[C@@]12CO[C@@H]1C[C@H](O)[C@@]1(C)C(=O)[C@H](O)C3=C(C)[C@@H](OC(=O)[C@H](O)[C@@H](NC(=O)OC(C)(C)C)c4ccccc4)C[C@@](O)([C@@H](OC(=O)c4ccccc4)[C@H]21)C3(C)C [Docetaxel nanoparticles, docetaxel]","dissolution rate, % dissolved in 30 minutes",[1]; nanoparticles made by milling,9%
same,"dissolution rate, % dissolved in 30 minutes",[1]; nanoparticles made by the supercritical carbon dioxide method,27%
CC(=O)O[C@H]1C(=O)[C@@]2(C)[C@H]([C@H](OC(=O)c3ccccc3)[C@]3(O)C[C@H](OC(=O)[C@H](O)[C@@H](NC(=O)c4ccccc4)c4ccccc4)C(C)=C1C3(C)C)[C@]1(OC(C)=O)CO[C@@H]1C[C@@H]2O [Paclitaxel nanoparticles lot used in formulas listed in Tabl] [listing 1 of 2 here],Particle size (number-weighted differential distribution) Mean,[2],0.861 μm
same,Particle size (number-weighted differential distribution) Median,[2],0.710 μm
same,Particle size (number-weighted differential distribution) Mode,[2],0.572 μm
same,specific surface area (SSA),[3]; [7],41.24 m^2/g
same,bulk density (not-tapped),[4]; [7],0.05 g/mL
CC(=O)O[C@H]1C(=O)[C@@]2(C)[C@H]([C@H](OC(=O)c3ccccc3)[C@]3(O)C[C@H](OC(=O)[C@H](O)[C@@H](NC(=O)c4ccccc4)c4ccccc4)C(C)=C1C3(C)C)[C@]1(OC(C)=O)CO[C@@H]1C[C@@H]2O [Paclitaxel nanoparticles lot used in formulas listed in Tabl] [listing 2 of 2 here],Particle size (number-weighted differential distribution) Mean,[2],0.83 μm
same,specific surface area (SSA),[3]; [8],26.72 m^2/g
same,bulk density (not-tapped),[4]; [8],0.09 g/mL
"CC(=O)O[C@H]1C(=O)[C@@]2(C)[C@H]([C@H](OC(=O)c3ccccc3)[C@]3(O)C[C@H](OC(=O)[C@H](O)[C@@H](NC(=O)c4ccccc4)c4ccccc4)C(C)=C1C3(C)C)[C@]1(OC(C)=O)CO[C@@H]1C[C@@H]2O [Paclitaxel nanoparticles, paclitaxel]",Crystal size (visual observation by light microscopy),[5]; [9],> 5 μm
same,Needle shaped crystals observed? (visual observation by light microscopy),[5]; [9],Yes
same,Crystal size (visual observation by light microscopy),[5]; [10],> 5 μm
same,Needle shaped crystals observed? (visual observation by light microscopy),[5]; [10],Yes
same,Crystal size (visual observation by light microscopy),[5]; [11],< 5 μm
same,Needle shaped crystals observed? (visual observation by light microscopy),[5]; [11],No
same,Crystal size (visual observation by light microscopy),[5]; [12],< 5 μm
same,Needle shaped crystals observed? (visual observation by light microscopy),[5]; [12],No
same,Crystal size (visual observation by light microscopy),[5]; [13],< 5 μm
same,Needle shaped crystals observed? (visual observation by light microscopy),[5]; [13],No
same,Crystal size (visual observation by light microscopy),[5]; [14],< 5 μm
same,Needle shaped crystals observed? (visual observation by light microscopy),[5]; [14],No
same,Crystal size (visual observation by light microscopy),[5]; [15],< 5 μm
same,Needle shaped crystals observed? (visual observation by light microscopy),[5]; [15],No
same,Crystal size (visual observation by light microscopy),[5]; [16],> 5 μm
same,Needle shaped crystals observed? (visual observation by light microscopy),[5]; [16],Yes
same,Crystal size (visual observation by light microscopy),[5]; [17],> 5 μm
same,Needle shaped crystals observed? (visual observation by light microscopy),[5]; [17],Yes
same,Crystal size (visual observation by light microscopy),[5]; [18],> 10 μm
same,Needle shaped crystals observed? (visual observation by light microscopy),[5]; [18],Yes
same,Crystal size (visual observation by light microscopy),[5]; [19],< 5 μm
same,Needle shaped crystals observed? (visual observation by light microscopy),[5]; [19],No
same,Crystal size (visual observation by light microscopy),[5]; [20],> 5 μm
same,Needle shaped crystals observed? (visual observation by light microscopy),[5]; [20],Yes
same,Crystal size (visual observation by light microscopy),[5]; [21],> 5 μm
same,Needle shaped crystals observed? (visual observation by light microscopy),[5]; [21],Yes
same,Crystal size (visual observation by light microscopy),[5]; [22],< 5 μm
same,Needle shaped crystals observed? (visual observation by light microscopy),[5]; [22],No
same,Crystal size (visual observation by light microscopy),[5]; [23],> 5 μm
same,Needle shaped crystals observed? (visual observation by light microscopy),[5]; [23],Yes
same,Crystal size (visual observation by light microscopy),[5]; [24],> 5 μm
same,Needle shaped crystals observed? (visual observation by light microscopy),[5]; [24],Yes
same,Crystal size (visual observation by light microscopy),[5]; [25],< 5 μm
same,Needle shaped crystals observed? (visual observation by light microscopy),[5]; [25],No
same,Crystal size (visual observation by light microscopy),[5]; [26],< 5 μm
same,Needle shaped crystals observed? (visual observation by light microscopy),[5]; [26],Yes
same,Crystal size (visual observation by light microscopy),[5]; [27],> 5 μm
same,Needle shaped crystals observed? (visual observation by light microscopy),[5]; [27],Yes
same,Crystal size (visual observation by light microscopy),[5]; [28],< 5 μm
same,Needle shaped crystals observed? (visual observation by light microscopy),[5]; [28],Yes
same,Crystal size (visual observation by light microscopy),[5]; [29],< 5 μm
same,Needle shaped crystals observed? (visual observation by light microscopy),[5]; [29],Yes
same,Crystal size (visual observation by light microscopy),[5]; [30],> 5 μm
same,Needle shaped crystals observed? (visual observation by light microscopy),[5]; [30],Yes
same,Crystal size (visual observation by light microscopy),[5]; [31],> 5 μm
same,Needle shaped crystals observed? (visual observation by light microscopy),[5]; [31],Yes
same,Crystal size (visual observation by light microscopy),[5]; [32],< 5 μm
same,Needle shaped crystals observed? (visual observation by light microscopy),[5]; [32],No
same,Crystal size (visual observation by light microscopy),[5]; [33],> 10 μm
same,Needle shaped crystals observed? (visual observation by light microscopy),[5]; [33],Yes
same,Crystal size (visual observation by light microscopy),[5]; [34],> 5 μm
same,Needle shaped crystals observed? (visual observation by light microscopy),[5]; [34],Yes
same,Crystal size (visual observation by light microscopy),[5]; [35],> 5 μm
same,Needle shaped crystals observed? (visual observation by light microscopy),[5]; [35],Yes
same,Crystal size (visual observation by light microscopy),[5]; [36],> 5 μm
same,Needle shaped crystals observed? (visual observation by light microscopy),[5]; [36],Yes
same,Crystal size (visual observation by light microscopy),[5]; [37],< 5 μm
same,Needle shaped crystals observed? (visual observation by light microscopy),[5]; [37],Yes
same,Crystal size (visual observation by light microscopy),[5]; [38],> 5 μm
same,Needle shaped crystals observed? (visual observation by light microscopy),[5]; [38],Yes
same,crystal growth of paclitaxel nanoparticles,[5]; in any of the hydrophobic carriers,did not grow
same,crystal growth of paclitaxel nanoparticles,"[5]; in aqueous solutions of benzalkonium chloride, CARBOPOL ULTREZ 10, or poloxamer 407",did not grow
same,effect of the presence of the paclitaxel nanoparticles in the formulations on dermal irritation,Göttingen minipigs,negligible effect
"CC(=O)O[C@H]1C(=O)[C@@]2(C)[C@H]([C@H](OC(=O)c3ccccc3)[C@]3(O)C[C@H](OC(=O)[C@H](O)[C@@H](NC(=O)c4ccccc4)c4ccccc4)C(C)=C1C3(C)C)[C@]1(OC(C)=O)CO[C@@H]1C[C@@H]2O [Paclitaxel, paclitaxel]",Paclitaxel Solubility at RT,"[6]; in Benzyl Alcohol, NF",17.02% w/w
same,Paclitaxel Solubility at RT,"[6]; in Diethylene Glycol Monoethyl Ether, NF (TRANSCUTOL P)",33.10% w/w
same,Paclitaxel Solubility at RT,[6]; in Diisopropyl Adipate (CERAPHYL 230),3.51% w/w
same,Paclitaxel Solubility at RT,[6]; in Dimethyl Isosorbide,38.22% w/w
same,Paclitaxel Solubility at RT,[6]; in Hexylene Glycol,4.07% w/w
same,Paclitaxel Solubility at RT,"[6]; in Isopropyl Myristate, NF",0.048% w/w
same,Paclitaxel Solubility at RT,"[6]; in Medium Chain Triglycerides, NF",0.32% w/w
same,Paclitaxel Solubility at RT,"[6]; in Mineral Oil, USP (heavy)",0.3 ppm
same,Paclitaxel Solubility at RT,"[6]; in Polyethylene Glycol 400, NF",22.30% w/w
same,Paclitaxel Solubility at RT,[6]; in Propylene Carbonate,4.74% w/w
same,Paclitaxel Solubility at RT,"[6]; in Propylene Glycol, USP",0.88% w/w
same,Paclitaxel Solubility at RT,"[6]; in Purified Water, USP",<0.05 ppm
same,Paclitaxel Solubility at RT,"[6]; in Purified Water, USP, listed as paclitaxel",less than 0.05 ppm
same,Paclitaxel Solubility at RT,"[6]; in Super Refined Oleic Acid, NF",0.041% w/w
same,Paclitaxel Solubility at RT,"[6]; in Super Refined Oleyl Alcohol, NF",0.38% w/w
